Assay results: ChEMBL document CHEMBL5543075, “Phenoxytacrine derivatives: Low-toxicity neuroprotectants exerting affinity to ifenprodil-binding site and cholinesterase inhibition” (Eur J Med Chem, 2024)
The source made the active and inactive calls. The rule behind the calls is not given here.

How the values were obtained:
Rattus norvegicus [1] = test: Antipsychotic activity in Wistar rat assessed as effect on pre-pulse inhibition of acoustic startle response at 0.3 mg/kg, ip measured after 10 mins by pre-pulse inhibition test; format: functional, organism-based
Rattus norvegicus [2] = test: Antipsychotic activity in Wistar rat assessed as effect on locomotor activity at 0.2 mg/kg, ip measured after 10 mins by open field test; format: functional, organism-based
[3] = Cytotoxicity against CHO-K1 cells incubated for 24 hrs by MTT assay; format: toxicity, cell-based, Cricetulus griseus; details: Chinese hamster
Rattus norvegicus [4] = test: Antialzheimer activity against scopolamine-induced cognitive impairment in Wistar rat assessed as increase in number of platform crossing at 2 mg/kg, ip measured upto 4 days by morris water maze test; format: functional, organism-based; details: time <= 4.0 day
Acetylcholinesterase = Acetylcholinesterase (Homo sapiens, UniProt P22303); test: Inhibition of human AChE by spectrophotometric Ellman's method
Acetylcholinesterase, sequence (P22303 whole entry): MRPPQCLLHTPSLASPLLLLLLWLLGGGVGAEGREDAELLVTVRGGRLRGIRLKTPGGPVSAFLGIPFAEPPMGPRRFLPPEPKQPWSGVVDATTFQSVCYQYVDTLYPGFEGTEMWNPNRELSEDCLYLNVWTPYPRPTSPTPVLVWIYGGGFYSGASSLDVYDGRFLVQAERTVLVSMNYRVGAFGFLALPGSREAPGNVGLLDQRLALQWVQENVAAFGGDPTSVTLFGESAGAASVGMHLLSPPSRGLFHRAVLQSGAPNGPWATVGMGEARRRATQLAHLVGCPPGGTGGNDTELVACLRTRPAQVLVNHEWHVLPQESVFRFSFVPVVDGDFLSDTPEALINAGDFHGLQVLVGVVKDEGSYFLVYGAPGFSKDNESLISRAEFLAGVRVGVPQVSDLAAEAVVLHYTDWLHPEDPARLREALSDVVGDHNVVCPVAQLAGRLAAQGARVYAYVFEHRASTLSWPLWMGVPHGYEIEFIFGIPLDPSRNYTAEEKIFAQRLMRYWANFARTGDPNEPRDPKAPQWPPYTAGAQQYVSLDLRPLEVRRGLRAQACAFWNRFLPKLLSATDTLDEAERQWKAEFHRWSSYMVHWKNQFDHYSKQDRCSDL

Rattus norvegicus [5] = test: Antialzheimer activity against scopolamine-induced cognitive impairment in Wistar rat assessed as decrease in mean distance from platform at 2 mg/kg, ip measured upto 4 days by morris water maze test (reference value: 51.7 +/-1.5 cm); format: functional; details: time <= 4 day
[6] = biological target: T1, Glutamate NMDA receptor; GRIN1/GRIN2B (Homo sapiens, UniProt Q05586+Q13224); test: Inhibition of recombinant human GluN1/GluN2B receptor expressed in HEK293 cells assessed as reduction in glutamate induced current at 1 uM at -60 mV holding potential by electrophysiology assay relative to control; format: cell-based
Cholinesterase = Cholinesterase (Homo sapiens, UniProt P06276); test: Inhibition of human BChE by spectrophotometric Ellman's method
Cholinesterase, sequence (P06276 whole entry): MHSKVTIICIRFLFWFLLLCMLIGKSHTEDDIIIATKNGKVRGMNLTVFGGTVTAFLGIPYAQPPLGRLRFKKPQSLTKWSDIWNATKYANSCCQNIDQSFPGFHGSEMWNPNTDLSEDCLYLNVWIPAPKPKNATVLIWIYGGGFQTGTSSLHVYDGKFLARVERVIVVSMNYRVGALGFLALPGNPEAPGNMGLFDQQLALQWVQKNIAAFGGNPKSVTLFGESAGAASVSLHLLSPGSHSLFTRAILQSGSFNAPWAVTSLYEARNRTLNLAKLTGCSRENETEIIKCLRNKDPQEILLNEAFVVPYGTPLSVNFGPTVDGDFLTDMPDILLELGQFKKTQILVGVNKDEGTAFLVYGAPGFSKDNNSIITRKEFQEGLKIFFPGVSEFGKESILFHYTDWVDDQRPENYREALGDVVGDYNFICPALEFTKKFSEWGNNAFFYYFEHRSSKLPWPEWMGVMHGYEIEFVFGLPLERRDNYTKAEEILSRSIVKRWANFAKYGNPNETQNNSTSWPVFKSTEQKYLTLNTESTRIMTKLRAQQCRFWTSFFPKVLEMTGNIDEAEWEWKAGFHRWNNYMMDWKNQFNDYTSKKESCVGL

[7] = biological target: Glutamate NMDA receptor; GRIN1/GRIN2A (Homo sapiens, UniProt Q05586+Q12879); test: Inhibition of recombinant wild type human GluN1/GluN2A receptor expressed in HEK293 cells assessed as reduction in glutamate induced current at -60 mV holding potential by electrophysiology assay; format: cell-based
Glutamate NMDA receptor; GRIN1/GRIN2A, sequence (Q12879 whole entry, other chains not shown): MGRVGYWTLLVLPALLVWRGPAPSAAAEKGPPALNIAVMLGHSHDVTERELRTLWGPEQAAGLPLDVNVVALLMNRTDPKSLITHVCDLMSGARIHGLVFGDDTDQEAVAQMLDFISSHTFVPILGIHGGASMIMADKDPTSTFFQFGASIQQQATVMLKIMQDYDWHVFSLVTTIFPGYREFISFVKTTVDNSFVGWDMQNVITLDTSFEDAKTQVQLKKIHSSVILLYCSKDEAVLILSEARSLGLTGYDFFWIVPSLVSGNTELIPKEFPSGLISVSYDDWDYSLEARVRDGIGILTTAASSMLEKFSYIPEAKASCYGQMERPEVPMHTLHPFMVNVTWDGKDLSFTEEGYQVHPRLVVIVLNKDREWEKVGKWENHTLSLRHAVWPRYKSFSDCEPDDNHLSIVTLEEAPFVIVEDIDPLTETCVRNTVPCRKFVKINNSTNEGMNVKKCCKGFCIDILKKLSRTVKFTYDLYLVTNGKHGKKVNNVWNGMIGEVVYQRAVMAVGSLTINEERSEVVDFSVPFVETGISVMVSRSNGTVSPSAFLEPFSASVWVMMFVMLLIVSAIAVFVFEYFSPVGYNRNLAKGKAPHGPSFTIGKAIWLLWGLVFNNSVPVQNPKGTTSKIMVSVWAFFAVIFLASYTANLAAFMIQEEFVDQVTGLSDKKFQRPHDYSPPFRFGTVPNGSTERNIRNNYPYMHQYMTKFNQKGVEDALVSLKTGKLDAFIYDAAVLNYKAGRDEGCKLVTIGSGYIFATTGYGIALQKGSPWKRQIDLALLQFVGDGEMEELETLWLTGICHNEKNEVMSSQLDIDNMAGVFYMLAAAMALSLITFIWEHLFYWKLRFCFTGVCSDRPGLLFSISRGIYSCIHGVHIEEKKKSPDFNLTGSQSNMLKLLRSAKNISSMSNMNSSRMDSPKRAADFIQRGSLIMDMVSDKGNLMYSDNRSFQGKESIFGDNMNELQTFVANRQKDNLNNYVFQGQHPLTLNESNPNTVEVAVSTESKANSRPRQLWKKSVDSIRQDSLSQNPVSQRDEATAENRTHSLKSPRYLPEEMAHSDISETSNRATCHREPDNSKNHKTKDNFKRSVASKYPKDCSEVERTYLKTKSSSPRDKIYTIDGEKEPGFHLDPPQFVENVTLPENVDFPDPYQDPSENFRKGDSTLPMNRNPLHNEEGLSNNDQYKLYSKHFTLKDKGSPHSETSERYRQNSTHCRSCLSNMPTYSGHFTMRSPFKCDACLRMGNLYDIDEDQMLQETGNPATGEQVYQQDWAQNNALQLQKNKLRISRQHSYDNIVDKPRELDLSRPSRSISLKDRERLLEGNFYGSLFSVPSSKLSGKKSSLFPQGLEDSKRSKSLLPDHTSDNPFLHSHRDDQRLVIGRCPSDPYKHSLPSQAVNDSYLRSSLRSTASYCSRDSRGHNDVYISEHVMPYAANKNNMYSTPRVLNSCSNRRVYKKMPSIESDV

[8] = Toxicity in Wistar rat assessed as no observed adverse effect level (NOAEL) at 20 mg/kg, ip measured after 10 to 15 mins; format: organism-based; details: in vivo, time 10-15 min
Rattus norvegicus [9] = test: Antipsychotic activity in Wistar rat assessed as effect on locomotor activity at 2 mg/kg, ip measured after 10 mins by open field test; format: functional, organism-based
in vitro [10] = details: human, liver microsomes
Description: Metabolic stability in human liver microsomes assessed as half life at 3 uM measured upto 45 min in presence of NADPH regenerating system by LC-MS analysis

[11] = Toxicity in Wistar rat assessed as no observed adverse effect level (NOAEL) at 10 mg/kg, ip; format: organism-based; details: in vivo
Rattus norvegicus [12] = test: Antialzheimer activity against scopolamine-induced cognitive impairment in Wistar rat assessed as decrease in latency to reach platform at 2 mg/kg, ip measured upto 4 days by morris water maze test; format: functional, organism-based; details: time <= 4.0 day
Hippocampal neurone = test: Neuroprotective activity against NMDA-induced cell injury in rat Hippocampal neuron cells assessed as decrease in damage score at 30 uM measured after 24 hrs by FJB staining based microscopy; format: functional
in vitro [13] = details: human, liver microsomes; remark: listed apart in the source
Description: Metabolic stability in human liver microsomes assessed as intrinsic clearance at 3 uM measured upto 45 min in presence of NADPH regenerating system by LC-MS analysis

Rattus norvegicus [14] = test: Antipsychotic activity in Wistar rat assessed as effect on pre-pulse inhibition of acoustic startle response at 2 mg/kg, ip measured after 10 mins by pre-pulse inhibition test; format: functional, organism-based
[15] = Inhibition of recombinant human GluN1 deltaATD/GluN2B receptor expressed in HEK293 cells assessed as reduction in glutamate induced current at -60 mV holding potential by electrophysiology assay; format: cell-based
[16] = biological target: T1, Glutamate NMDA receptor; GRIN1/GRIN2B; test: Inhibition of recombinant wild type human GluN1/GluN2B receptor expressed in HEK293 cells assessed as reduction in glutamate induced current at -60 mV holding potential by electrophysiology assay; format: cell-based

SMILES	IC50 at 24 h [3]	IC50 (Acetylcholinesterase)	inhibition [6]	IC50 (Cholinesterase)	further results
C[C@]12N[C@H](Cc3ccccc31)c1ccccc12	–	–	–	–	Activity (Rattus norvegicus [1]): Active; Activity (Rattus norvegicus [2]): Active
Cc1ccccc1Oc1ccc2nc3c(c(N)c2c1)CCC3.Cl	78 µM	28.2 µM	16.6%	–	Activity (Rattus norvegicus [4]): Active; Activity (Rattus norvegicus [5]): 59.5 cm
Cc1ccc(Oc2ccc3nc4c(c(N)c3c2)CCCC4)cc1	20 µM	3.29 µM	18%	1.95 µM	–
COc1ccccc1Oc1ccc2nc3c(c(N)c2c1)CCCCC3	74 µM	9.62 µM	57.6%	5.48 µM	–
Nc1c2c(nc3ccc(Oc4ccccc4)cc13)CCC2	55 µM	6.42 µM	30.3%	2.93 µM	–
COc1ccc(Oc2ccc3nc4c(c(N)c3c2)CCC4)cc1	81 µM	4.24 µM	22.7%	14.5 µM	–
Cc1cccc(Oc2ccc3nc4c(c(N)c3c2)CCCC4)c1	20 µM	9.19 µM	21.2%	3.66 µM	–
Cc1cc(C)cc(Oc2ccc3nc4c(c(N)c3c2)CCCC4)c1	13 µM	1.62 µM	8.2%	3.88 µM	–
Cc1cccc(Oc2ccc3nc4c(c(N)c3c2)CCC4)c1	34 µM	5.28 µM	18.1%	2.81 µM	–
COc1ccc(Oc2ccc3nc4c(c(N)c3c2)CCCCC4)cc1	28 µM	3.63 µM	29.6%	2.74 µM	–
CC(C)(C)c1ccc(Oc2ccc3nc4c(c(N)c3c2)CCC4)cc1	11 µM	2.78 µM	6.7%	3.11 µM	–
Cc1cc(C)cc(Oc2ccc3nc4c(c(N)c3c2)CCC4)c1	39 µM	3.72 µM	9.6%	5.48 µM	–
Cc1cccc(Oc2ccc3nc4c(c(N)c3c2)CCCCC4)c1	13 µM	12.3 µM	14.8%	2.74 µM	–
COc1ccccc1Oc1ccc2nc3c(c(N)c2c1)CCC3.Cl	68 µM	8.52 µM	35%	5.48 µM	IC50 [7]: 5.1 µM; Activity [8]: Toxic; Activity (Rattus norvegicus [9]): inactive; half-life at 0.75 h, 3 µM (in vitro [10]): 1.16 h; Activity [11]: Non-Toxic; Activity (Rattus norvegicus [12]): Active; Activity (Hippocampal neurone): Active; microsomal CLint at 0.75 h, 3 µM (in vitro [13]): 20 µL/min/mg; Activity (Rattus norvegicus [14]): inactive; IC50 [15]: 5.2 µM; IC50 [16]: 2.4 µM
CC(C)(C)c1ccc(Oc2ccc3nc4c(c(N)c3c2)CCCC4)cc1	5.1 µM	1.96 µM	16%	6.61 µM	–
COc1cccc(Oc2ccc3nc4c(c(N)c3c2)CCCC4)c1	27 µM	2.64 µM	14.7%	2.76 µM	–
Nc1c2c(nc3ccc(Oc4ccc(Cl)cc4)cc13)CCC2	28 µM	5.07 µM	8.7%	3.6 µM	–
COc1ccc(Oc2ccc3nc4c(c(N)c3c2)CCCC4)cc1	26 µM	2.9 µM	33.2%	7.26 µM	–
Cc1ccccc1Oc1ccc2nc3c(c(N)c2c1)CCCC3	25 µM	3.78 µM	19.3%	4.15 µM	–
CC(=O)c1ccc(Oc2ccc3nc4c(c(N)c3c2)CCC4)cc1	69 µM	5.76 µM	9.5%	16.5 µM	–
Nc1c2c(nc3ccc(Oc4ccccc4)cc13)CCCCC2	38 µM	5.36 µM	34.9%	1.4 µM	–
Nc1c2c(nc3ccc(Oc4ccc(Cl)cc4)cc13)CCCCC2	90 µM	4.22 µM	12%	1.85 µM	–
Cc1ccc(Oc2ccc3nc4c(c(N)c3c2)CCC4)cc1	76 µM	8.36 µM	18.7%	7.34 µM	–
Cc1cc(C)cc(Oc2ccc3nc4c(c(N)c3c2)CCCCC4)c1	30 µM	0.99 µM	7.8%	5.27 µM	–
Nc1c2c(nc3ccc(Oc4ccc(Cl)cc4)cc13)CCCC2	12 µM	2.92 µM	14.2%	3.32 µM	–
CC(C)(C)c1ccc(Oc2ccc3nc4c(c(N)c3c2)CCCCC4)cc1	9 µM	71.6 µM	10.1%	2.51 µM	–
Cc1ccccc1Oc1ccc2nc3c(c(N)c2c1)CCCCC3	26 µM	5.8 µM	8.8%	4.17 µM	–
Cc1ccc(Oc2ccc3nc4c(c(N)c3c2)CCCCC4)cc1	140 µM	3.79 µM	11.9%	2.78 µM	–
COc1cccc(Oc2ccc3nc4c(c(N)c3c2)CCCCC4)c1	21 µM	4.25 µM	7.1%	2.62 µM	–
COc1cccc(Oc2ccc3nc4c(c(N)c3c2)CCC4)c1	85 µM	5.25 µM	16%	7.96 µM	–
